Experimental findings from ChEMBL document CHEMBL1158159, “Design, synthesis, and structure-affinity relationship studies in NK1 receptor ligands based on azole-fused quinolinecarboxamide moieties” (Bioorg Med Chem, 2008) are described below.

One may read the IC50 as the midpoint of a concentration-inhibition curve.

The target of this assay is Substance-P receptor (Homo sapiens, UniProt P25103). In words: Displacement of [125I]BH-SP to human recombinant NK1 receptor in CHO cells. Format: cell-based. A general note: In a radioligand displacement assay an active substance lowers the binding of a labelled ligand.
Substance-P receptor, sequence (P25103 whole entry): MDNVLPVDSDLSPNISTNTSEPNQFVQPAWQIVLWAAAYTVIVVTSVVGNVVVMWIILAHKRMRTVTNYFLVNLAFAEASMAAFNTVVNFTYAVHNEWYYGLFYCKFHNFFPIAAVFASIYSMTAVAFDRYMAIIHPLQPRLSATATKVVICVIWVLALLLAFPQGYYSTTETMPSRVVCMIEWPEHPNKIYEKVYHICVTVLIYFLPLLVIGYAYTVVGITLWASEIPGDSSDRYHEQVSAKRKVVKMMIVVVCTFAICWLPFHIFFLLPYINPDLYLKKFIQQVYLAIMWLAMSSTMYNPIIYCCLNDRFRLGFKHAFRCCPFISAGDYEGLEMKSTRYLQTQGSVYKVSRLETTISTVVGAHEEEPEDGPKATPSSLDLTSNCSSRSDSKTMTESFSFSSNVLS

In the case of `CN(Cc1cc(C(F)(F)F)cc(C(F)(F)F)c1)C(=O)c1c(-c2ccccc2)c2ccccc2n2ccnc12`, the IC50 stood at 0.038 µM.

As to `Cc1ccc(-c2c(C(=O)NCc3cc(C(F)(F)F)cc(C(F)(F)F)c3)c3nnnn3c3ccccc23)cc1`, the IC50 came out at 0.401 µM.

As for `O=C(NCc1cc(C(F)(F)F)cc(C(F)(F)F)c1)c1c(-c2ccccc2)c2ccccc2n2cncc12`, the IC50 was determined as 0.146 µM.

With `Cc1ccc(-c2c(C(=O)N(C)Cc3cc(C(F)(F)F)cc(C(F)(F)F)c3)c3nnnn3c3ccccc23)cc1`, the IC50 turned out to be 0.055 µM.

On to `O=C(NCc1cc(C(F)(F)F)cc(C(F)(F)F)c1)c1c(-c2ccccc2)c2ccccc2n2cnnc12`, for which the 50% inhibitory concentration (IC50) came out at 0.542 µM.

Turning to `CN(Cc1cc(C(F)(F)F)cc(C(F)(F)F)c1)C(=O)c1c(-c2ccccc2)c2ccccc2n2cccc12`, the IC50 stood at 0.036 µM.

For `O=C(NCc1cc(C(F)(F)F)cc(C(F)(F)F)c1)c1c(-c2ccccc2)c2ccccc2n2ccnc12`, the IC50 turned out to be 1.23 µM.

On to `CN(Cc1cc(C(F)(F)F)cc(C(F)(F)F)c1)C(=O)c1c(-c2ccc(F)cc2)c2ccccc2n2nnnc12`, for which the IC50 was 0.021 µM.

Consider `COc1ccccc1CNC(=O)c1c(-c2ccccc2)c2ccccc2n2nnnc12`, for which the IC50 is 2.75 µM.

In the case of `COc1cc(CNC(=O)c2c(-c3ccccc3)c3ccccc3n3nnnc23)cc(OC)c1`, the IC50 came to 0.78 µM.

Take `O=C(NCc1cc(C(F)(F)F)cc(C(F)(F)F)c1)c1c(-c2ccccc2)c2ccccc2n2nnnc12`: the IC50 worked out at 0.311 µM.

As for `CN(Cc1cc(C(F)(F)F)cc(C(F)(F)F)c1)C(=O)c1c(-c2ccccc2)c2ccccc2n2cnnc12`, the IC50 was 0.009 µM.

Turning to `O=C(NCc1cc(C(F)(F)F)cc(C(F)(F)F)c1)c1c(-c2ccccc2)c2ccccc2n2cccc12`, the IC50 worked out at 0.39 µM.

With `CN(Cc1cc(C(F)(F)F)cc(C(F)(F)F)c1)C(=O)c1c(-c2ccccc2)c2ccccc2n2cncc12`, the IC50 stood at 0.0043 µM.

Consider `CN(Cc1cc(C(F)(F)F)cc(C(F)(F)F)c1)C(=O)c1c(-c2ccccc2)c2ccccc2n2nnnc12`, for which the concentration for half-maximal inhibition (IC50) is 0.026 µM.

On to `O=C(NCc1cc(C(F)(F)F)cc(C(F)(F)F)c1)c1c(-c2ccc(F)cc2)c2ccccc2n2nnnc12`, for which the IC50 came out at 0.235 µM.
